Data taken from US10004701B2, “Methods and compositions for treating infection” (UNIVERSITY OF ROCHESTER, priority 2012, dated 2018).
Where a name gives a salt, the structure may show the parent alone. Read-outs that look alike come from different tables or passages of the source.

Key:
Assay in all cases: AK assay 384-well format, Prestwick library screening
[1] = system: A. baumannii strain 98-37-09; assay type: cell-based, Acinetobacter baumannii; conditions: 50 μM final drug concentration; for fold induction at 50 µM: Acinetobacter baumannii, 983709, 3 h
E. cloacae = assay type: cell-based, Enterobacter cloacae; conditions: 50 μM final drug concentration; for fold induction at 50 µM: Enterobacter cloacae, 3 h
K. pneumoniae = assay type: cell-based, Klebsiella pneumoniae; conditions: 50 μM final drug concentration; for fold induction at 50 µM: Klebsiella pneumoniae, 3 h
E. coli = assay type: cell-based, Escherichia coli; conditions: 50 μM final drug concentration; for fold induction at 50 µM: Escherichia coli, 3 h
[2] = system: S. aureus strain USA300-0114; assay type: cell-based, Staphylococcus aureus; conditions: 50 μM final drug concentration; for fold induction at 50 µM: Staphylococcus aureus, USA300, 3 h
E. faecium = assay type: cell-based, Enterococcus faecium; conditions: 50 μM final drug concentration; for fold induction at 50 µM: Enterococcus faecium, 3 h
P. aeruginosa = assay type: cell-based, Pseudomonas aeruginosa; conditions: 50 μM final drug concentration; for fold induction at 50 µM: Pseudomonas aeruginosa, 3 h
[3] = planktonic A. baumannii, positive cutoff 3-fold increase, read-out: AK-based Prestwick library screening result, A. baumannii (fold increase in extracellular AK activity)
[4] = planktonic E. cloacae, positive cutoff 3-fold increase, read-out: AK-based Prestwick library screening result, E. cloacae (fold increase in extracellular AK activity)
[5] = planktonic K. pneumoniae, positive cutoff 3-fold increase, read-out: AK-based Prestwick library screening result, K. pneumoniae (fold increase in extracellular AK activity)
[6] = planktonic E. coli, positive cutoff 3-fold increase, read-out: AK-based Prestwick library screening result, E. coli (fold increase in extracellular AK activity)
[7] = planktonic S. aureus, positive cutoff 3-fold increase, read-out: AK-based Prestwick library screening result, S. aureus (fold increase in extracellular AK activity)
[8] = planktonic E. faecium, positive cutoff 3-fold increase, read-out: AK-based Prestwick library screening result, E. faecium (fold increase in extracellular AK activity)
[9] = planktonic P. aeruginosa, positive cutoff 3-fold increase, read-out: AK-based Prestwick library screening result, P. aeruginosa (fold increase in extracellular AK activity)
[10] = cutoff for positive-scoring molecules 3-fold increase
[11] = planktonic A. baumannii, cutoff for positive-scoring molecules 3-fold increase, read-out: AK-based Prestwick Library Screening Results, A. baumannii (increase in extracellular AK activity)
[12] = planktonic E. cloacae, cutoff for positive-scoring molecules 3-fold increase, read-out: AK-based Prestwick Library Screening Results, E. cloacae (increase in extracellular AK activity)
[13] = planktonic K. pneumoniae, cutoff for positive-scoring molecules 3-fold increase, read-out: AK-based Prestwick Library Screening Results, K. pneumoniae (increase in extracellular AK activity)
[14] = planktonic S. aureus, cutoff for positive-scoring molecules 3-fold increase, read-out: AK-based Prestwick Library Screening Results, S. aureus (increase in extracellular AK activity)
[15] = planktonic E. faecium, cutoff for positive-scoring molecules 3-fold increase, read-out: AK-based Prestwick Library Screening Results, E. faecium (increase in extracellular AK activity)
[16] = planktonic P. aeruginosa, cutoff for positive-scoring molecules 3-fold increase, read-out: AK-based Prestwick Library Screening Results, P. aeruginosa (increase in extracellular AK activity)
[17] = planktonic, cutoff for positive 3-fold increase

C[C@]12CC[C@@H]3c4ccc(O)cc4CC[C@H]3[C@@H]1C[C@@H](O)[C@@H]2O [Estriol]
fold induction at 50 µM [1, 3]: 1.2
fold induction at 50 µM (E. cloacae; [4]): 1.4
fold induction at 50 µM (K. pneumoniae; [5]): 0.8
fold induction at 50 µM (E. coli; [6]): 1.1
fold induction at 50 µM [2, 7]: 1.2
fold induction at 50 µM (E. faecium; [8]): 1.1
fold induction at 50 µM (P. aeruginosa; [9]): 1

CC1(C)S[C@@H]2[C@H](NC(=O)[C@H](C(=O)O)c3ccsc3)C(=O)N2[C@H]1C(=O)O [Ticarcillin sodium]
fold induction at 50 µM [1, 3]: 2.6
fold induction at 50 µM (E. cloacae; [4]): 1.4
fold induction at 50 µM (K. pneumoniae; [5]): 0.7
fold induction at 50 µM (E. coli; [6]): 12.8
fold induction at 50 µM [2, 7]: 0.7
fold induction at 50 µM (E. faecium; [8]): 1.2
fold induction at 50 µM (P. aeruginosa; [9]): 0.8

CCO.C[C@H]1c2cccc(O)c2C(O)=C2C(=O)[C@]3(O)C(O)=C(C(N)=O)C(=O)[C@@H](N(C)C)[C@@H]3[C@@H](O)[C@@H]21.C[C@H]1c2cccc(O)c2C(O)=C2C(=O)[C@]3(O)C(O)=C(C(N)=O)C(=O)[C@@H](N(C)C)[C@@H]3[C@@H](O)[C@@H]21.Cl.Cl.O [Doxycycline hyclate]
AK-based Prestwick Library Screening Results, A. baumannii (fold increase in extracellular AK activity) [1, 10]: 3.4
AK-based Prestwick Library Screening Results, E. cloacae (fold increase in extracellular AK activity) (E. cloacae; [10]): 1.5
AK-based Prestwick Library Screening Results, K. pneumoniae (fold increase in extracellular AK activity) (K. pneumoniae; [10]): 0.3
AK-based Prestwick Library Screening Results, E. coli (fold increase in extracellular AK activity) (E. coli; [10]): 2.0
AK-based Prestwick Library Screening Results, S. aureus (fold increase in extracellular AK activity) [2, 10]: 9.4
AK-based Prestwick Library Screening Results, E. faecium (fold increase in extracellular AK activity) (E. faecium; [10]): 1.1
AK-based Prestwick Library Screening Results, P. aeruginosa (fold increase in extracellular AK activity) (P. aeruginosa; [10]): 0.7

CN(C)CC/C=C1/c2ccccc2Sc2ccc(Cl)cc21 [Chlorprothixene hydrochloride]
fold induction at 50 µM [1, 11]: 1.2
fold induction at 50 µM (E. cloacae; [12]): 1
fold induction at 50 µM (K. pneumoniae; [13]): 0.8
fold induction at 50 µM (E. coli; planktonic E. coli, […], read-out: AK-based Prestwick Library Screening Results, E. coli (increase in extracellular AK activity)): 1
fold induction at 50 µM [2, 14]: 0.6
fold induction at 50 µM (E. faecium; [15]): 1
fold induction at 50 µM (P. aeruginosa; [16]): 0.9

CC(=O)c1ccc2c(c1)N(CCCN1CCC(CCO)CC1)c1ccccc1S2 [Piperacetazine]
fold induction at 50 µM ([1]; cutoff for positive-scoring molecules 3-fold increase, read-out: AK-based Prestwick Library Screening Results, A. baumannii (fold increase in extracellular AK activity)): 0.6
fold induction at 50 µM (E. cloacae; cutoff for positive-scoring molecules 3-fold increase, read-out: AK-based Prestwick Library Screening Results, E. cloacae (fold increase in extracellular AK activity)): 0.4
fold induction at 50 µM (K. pneumoniae; cutoff for positive-scoring molecules 3-fold increase, read-out: AK-based Prestwick Library Screening Results, K. pneumoniae (fold increase in extracellular AK activity)): 0.5
fold induction at 50 µM (E. coli; cutoff for positive-scoring molecules 3-fold increase, read-out: AK-based Prestwick Library Screening Results, E. coli (fold increase in extracellular AK activity)): 0.5
fold induction at 50 µM ([2]; cutoff for positive-scoring molecules 3-fold increase, read-out: AK-based Prestwick Library Screening Results, S. aureus (fold increase in extracellular AK activity)): 0.5
fold induction at 50 µM (E. faecium; cutoff for positive-scoring molecules 3-fold increase, read-out: AK-based Prestwick Library Screening Results, E. faecium (fold increase in extracellular AK activity)): 0.9
fold induction at 50 µM (P. aeruginosa; cutoff for positive-scoring molecules 3-fold increase, read-out: AK-based Prestwick Library Screening Results, P. aeruginosa (fold increase in extracellular AK activity)): 0.5

Ketanserin tartrate hydrate
AK-based Prestwick Library Screening Results, A. baumannii (fold increase in extracellular AK activity) [1, 17]: 1.2
AK-based Prestwick Library Screening Results, E. cloacae (fold increase in extracellular AK activity) (E. cloacae; [17]): 1.4
AK-based Prestwick Library Screening Results, K. pneumoniae (fold increase in extracellular AK activity) (K. pneumoniae; [17]): 1.0
AK-based Prestwick Library Screening Results, E. coli (fold increase in extracellular AK activity) (E. coli; [17]): 1.3
AK-based Prestwick Library Screening Results, S. aureus (fold increase in extracellular AK activity) [2, 17]: 1.0
AK-based Prestwick Library Screening Results, E. faecium (fold increase in extracellular AK activity) (E. faecium; [17]): 1.0
AK-based Prestwick Library Screening Results, P. aeruginosa (fold increase in extracellular AK activity) (P. aeruginosa; [17]): 1.0

CNCCCC12CCC(c3ccccc31)c1ccccc12 [Maprotiline hydrochloride]
fold induction at 50 µM [1, 11]: 0.8
fold induction at 50 µM (E. cloacae; [12]): 0.9
fold induction at 50 µM (K. pneumoniae; [13]): 0.6
fold induction at 50 µM (E. coli; planktonic E. coli, cutoff for positive-scoring molecules 3-fold increase, read-out: AK-based Prestwick Library Screening Results, E. coli (increase in extracellular AK activity)): 0.8
fold induction at 50 µM [2, 14]: 1.1
fold induction at 50 µM (E. faecium; [15]): 0.8
fold induction at 50 µM (P. aeruginosa; [16]): 0.9

C=CC1=C(C(=O)O)N2C(=O)[C@@H](NC(=O)/C(=N\OCC(=O)O)c3csc(N)n3)[C@H]2SC1 [Cefixime]
fold induction at 50 µM ([1]; planktonic, cutoff for positive 3-fold increase, read-out: AK-based Prestwick Library Screening Results, A. baumannii (fold increase in extracellular AK activity)): 1.8
fold induction at 50 µM (E. cloacae; planktonic, cutoff for positive 3-fold increase, read-out: AK-based Prestwick Library Screening Results, E. cloacae (fold increase in extracellular AK activity)): 21.9
fold induction at 50 µM (K. pneumoniae; planktonic, cutoff for positive 3-fold increase, read-out: AK-based Prestwick Library Screening Results, K. pneumoniae (fold increase in extracellular AK activity)): 4.6
fold induction at 50 µM (E. coli; planktonic, cutoff for positive 3-fold increase, read-out: AK-based Prestwick Library Screening Results, E. coli (fold increase in extracellular AK activity)): 18.6
fold induction at 50 µM ([2]; planktonic, cutoff for positive 3-fold increase, read-out: AK-based Prestwick Library Screening Results, S. aureus (fold increase in extracellular AK activity)): 1.2
fold induction at 50 µM (E. faecium; planktonic, cutoff for positive 3-fold increase, read-out: AK-based Prestwick Library Screening Results, E. faecium (fold increase in extracellular AK activity)): 1.1
fold induction at 50 µM (P. aeruginosa; planktonic, cutoff for positive 3-fold increase, read-out: AK-based Prestwick Library Screening Results, P. aeruginosa (fold increase in extracellular AK activity)): 11.7

C[C@@H]1C[C@@H]([C@H](O)CC2CC(=O)NC(=O)C2)C(=O)[C@@H](C)C1 [Cycloheximide]
fold induction at 50 µM ([1]; […], read-out: AK-based Prestwick Library Screening Results, A. baumannii (fold increase in extracellular AK activity)): 1.2
fold induction at 50 µM (E. cloacae; […], read-out: AK-based Prestwick Library Screening Results, E. cloacae (fold increase in extracellular AK activity)): 0.9
fold induction at 50 µM (K. pneumoniae; […], read-out: AK-based Prestwick Library Screening Results, K. pneumoniae (fold increase in extracellular AK activity)): 1
fold induction at 50 µM (E. coli; […], read-out: AK-based Prestwick Library Screening Results, E. coli (fold increase in extracellular AK activity)): 1.3
fold induction at 50 µM ([2]; […], read-out: AK-based Prestwick Library Screening Results, S. aureus (fold increase in extracellular AK activity)): 1.1
fold induction at 50 µM (E. faecium; […], read-out: AK-based Prestwick Library Screening Results, E. faecium (fold increase in extracellular AK activity)): 1
fold induction at 50 µM (P. aeruginosa; […], read-out: AK-based Prestwick Library Screening Results, P. aeruginosa (fold increase in extracellular AK activity)): 1.1

C[C@@]12C(=O)OC(=O)[C@]1(C)[C@H]1CC[C@@H]2O1 [Cantharidin]
fold induction at 50 µM ([1]; planktonic, […], read-out: AK-based Prestwick Library Screening Results, A. baumannii (fold increase in extracellular AK activity)): 0.5
fold induction at 50 µM (E. cloacae; planktonic, […], read-out: AK-based Prestwick Library Screening Results, E. cloacae (fold increase in extracellular AK activity)): 0.6
fold induction at 50 µM (K. pneumoniae; planktonic, […], read-out: AK-based Prestwick Library Screening Results, K. pneumoniae (fold increase in extracellular AK activity)): 0.6
fold induction at 50 µM (E. coli; planktonic, […], read-out: AK-based Prestwick Library Screening Results, E. coli (fold increase in extracellular AK activity)): 0.6
fold induction at 50 µM ([2]; planktonic, […], read-out: AK-based Prestwick Library Screening Results, S. aureus (fold increase in extracellular AK activity)): 0.5
fold induction at 50 µM (E. faecium; planktonic, […], read-out: AK-based Prestwick Library Screening Results, E. faecium (fold increase in extracellular AK activity)): 0.8
fold induction at 50 µM (P. aeruginosa; planktonic, […], read-out: AK-based Prestwick Library Screening Results, P. aeruginosa (fold increase in extracellular AK activity)): 0.5
